# Measurements as given in patent US20220000805A1, “COMBINATION OF M-OPIOID RECEPTOR (MOR) MODULATORS FOR PREVENTING AND TREATING PAIN, S[…] MENTAL DISORDERS” (HADAS IT MEDICAL RESEARCH SERVICES & DEVELOPMENT LIMITED, priority 2018, published 2022).
# Where “and” joins values, the source holds several entries; their conditions need not be identical. Identical values can stand only once. Like-named read-outs stand apart in the source and are kept apart here.
# Key:
# h-OPRM1 (human MOR) = biological target: T1, h-OPRM1 (human MOR) (Homo sapiens, UniProt P35372); type: cell-based
# T1 construct: host or cells: Chinese hamster ovary (CHO) cells, cAMP Hunter cell line
# T1 sequence (P35372 whole entry): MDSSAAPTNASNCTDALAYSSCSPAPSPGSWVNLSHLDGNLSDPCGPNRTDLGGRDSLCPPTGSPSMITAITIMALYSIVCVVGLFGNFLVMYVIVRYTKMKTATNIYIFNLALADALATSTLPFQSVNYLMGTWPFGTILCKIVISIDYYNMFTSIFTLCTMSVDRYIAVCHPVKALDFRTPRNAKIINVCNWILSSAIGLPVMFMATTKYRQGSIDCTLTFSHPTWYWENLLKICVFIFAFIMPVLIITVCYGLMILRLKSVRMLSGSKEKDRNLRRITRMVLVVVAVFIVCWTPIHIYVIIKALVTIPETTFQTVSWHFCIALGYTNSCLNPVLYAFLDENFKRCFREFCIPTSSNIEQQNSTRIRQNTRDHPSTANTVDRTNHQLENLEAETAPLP
# Description: Tracking cAMP Secondary Messenger Pathway in MOR Expressing Cells (DiscoverX)
# A Chinese hamster ovary cell line stably expressing non-tagged h-OPRM1 (human MOR) that signal through cAMP was used.
# 1. cAMP Hunter cell line expressing h-OPRM1 was expanded from freezer stocks according to standard procedures. 2. Cells were seeded in a total volume of 20 μL into white walled, 384-well microplates and incubated at 37° C. for the appropriate time prior to testing. 3. cAMP modulation was determined using the DiscoverX HitHunter cAMP XS+ assay (for further details, see below).
# 1. For agonist determination, cells were incubated with sample in the presence of EC80 forskolin to induce cAMP-generation and Gi agonist activity, inhibiting cAMP formation, by the test compound was assayed, as follows: 2. Media was aspirated from cells and replaced with 15 μL 2:1 HBSS/10 mM Hepes: cAMP XS+Ab reagent. 3. Intermediate dilution of sample stocks was performed to generate 4× sample in assay buffer containing 4× EC80 forskolin. An amount of 4.5 μL of 4× sample was added to cells and incubated at 37° C. or room temperature for 30 or 60 minutes. The vehicle used for all stock solutions is DMSO and its final concentration in the assay system was 1%.
# 1. After appropriate compound incubation, assay signal was generated through incubation with 20 μL cAMP XS+ED/CL lysis cocktail for one hour followed by incubation with 20 μL cAMP XS+EA reagent for three hours at room temperature. 2. Microplates were read following signal generation with a PerkinElmer Envision™ instrument for chemiluminescent signal detection.
# 1. Compound activity was analyzed using CBIS data analysis suite (ChemInnovation, CA). 2. For Gi agonist mode assays, percentage activity is calculated using the following formula: % Activity=100%×(1−(mean RLU of test sample−mean RLU of MAX control)/(mean RLU of vehicle control−mean RLU of MAX control)).
# OPRM1, the μ-opioid receptor (MOR), is a GPCR with high affinity for enkephalins and beta-endorphin, but a low affinity for dynorphins. The prototypical OPRM1 agonist is morphine, the primary psychoactive alkaloid in opium. It is an inhibitory G-protein coupled receptor that activates the Gi alpha subunit, inhibiting adenylate cyclase activity, thereby lowering cAMP levels. In order to test synergy of various drug combinations, towards the human receptor (h-OPRM1), a high sensitivity and absolute selectivity assay system, developed by DiscoverX (Fremont, Calif., USA) was employed. The analytical power of this assay, described in detail below, enables unequivocal identification of agonistic or antagonistic activity of drugs towards h-OPRM1, at the biologically relevant cellular context. […] A positive control dose-response was also examined in parallel (see FIG. 6).
# opioid-receptor = settings: opioid agonist; relative to 7-hydroxymitragynine; cited from earlier work
# [1] = single iv bolus dose of 0.5 mg/kg racemic ketamine; for at least 24 hrs; cited from earlier work
compound,measurement,setting,value
"CN1c2ccccc2C(NCCCCCCC(=O)O)c2ccc(Cl)cc2S1(=O)=O (stereo not shown) [Tia, 7-[(3-Chloro-6-methyl-5,5-dioxo-11H-benzo[c][2,1]benzothiazepin-11-yl)amino]heptanoic acid]",amount of the single agent that obtains the level of activity of the combination,h-OPRM1 (human MOR),> 5 ×
"N[C@@]1(c2ccccc2Cl)CCC[C@@H](O)C1=O.O=C(O)C(F)(F)F (racemic) [HNK, rac-(2r,6r)-2 amino-2-(2-chlorophenyl)-6-hydroxycyclohexan-1-one; trifluoroacetic acid, trans]",agonistic activity of the ketamine active metabolite by itself,h-OPRM1 (human MOR),no agonistic activity
same,Agonistic activity (% of maximal c-AMP inhibition),"h-OPRM1 (human MOR); HNK 0.08 nM by itself, Table 2/5 series",0% and 3.1%
same,Agonistic activity (% of maximal c-AMP inhibition),"h-OPRM1 (human MOR); HNK 0.4 nM by itself, Table 2/5 series",0% and 7.6%
same,Agonistic activity (% of maximal c-AMP inhibition),"h-OPRM1 (human MOR); HNK 2 nM by itself, Table 2/5 series",0%
same,Agonistic activity (% of maximal c-AMP inhibition),"h-OPRM1 (human MOR); HNK 10 nM by itself, Table 2/5 series",0%
same,Agonistic activity (% of maximal c-AMP inhibition),"h-OPRM1 (human MOR); HNK 50 nM by itself, Table 1 series",1.3%
same,Agonistic activity (% of maximal c-AMP inhibition),"h-OPRM1 (human MOR); HNK 50 nM by itself, Table 2/5 series",0% and 6.7%
same,Agonistic activity (% of maximal c-AMP inhibition),"h-OPRM1 (human MOR); HNK 300 nM by itself, Table 1 series",10.3%
same,Agonistic activity (% of maximal c-AMP inhibition),"h-OPRM1 (human MOR); HNK 1,800 nM by itself, Table 1 series",−3.4%
same,Agonistic activity (% of maximal c-AMP inhibition),"h-OPRM1 (human MOR); HNK 11,000 nM by itself, Table 1 series",−8.6%
10-fluoro ethylene glycol adduct of 7-hydroxymitragynine,potency higher than 7-hydroxymitragynine,opioid-receptor,4 fold
"CNC1(c2ccccc2Cl)CCCCC1=O (racemic) [Ketamine, (RS)-2-(2-Chlorophenyl)-2-(methylamino)cyclohexanone]",HNK serum concentrations,[1],about 30 nM
